In one assay the target is NDM-1 (Klebsiella pneumoniae, UniProt C7C422). Put plainly: Enzyme activity: determination of IC50, fluorescence assay with CCF2-FA substrate. Type of assay: biochemical. As to conditions: enzyme 1 pM, CCF2-FA 1.25 μM, 2 hours at 25° C.; read-out: NDM1 IC50. In outline:
(§1)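 Enzyme at 1 pM (NDM-1), 2 pM (IMP-1) or 30 pM (VIM-1) was incubated with inhibitor (20 μM to 0.00063 μM) and 1.25 μM CCF2-FA in 100 mM KH2PO4 pH 7, 0.005% Tween-20, 10 μM ZnSO4 for 2 hours at 25° C. Fluorescence was read at ex 405/em 460 nm; IC50 from 4-parameter fit.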

The target in another assay is IMP-1 (Serratia marcescens, UniProt P52699). The assay is described as above. As to conditions: enzyme 2 pM, CCF2-FA 1.25 μM, 2 hours at 25° C.; read-out: IMP1 IC50. Type of assay: biochemical. In outline:
as §1

The target of the next assay is VIM-1 (Pseudomonas aeruginosa, UniProt A0A0F7KYQ8). The assay is described as above. As to conditions: enzyme 30 pM, CCF2-FA 1.25 μM, 2 hours at 25° C.; read-out: VIM1 IC50. Type of assay: biochemical. In outline:
as §1

The subject of assay [1] is Serratia marcescens expressing IMP-1 (CL5741). Put plainly: Antibiotic potentiation activity: synergistic concentration (MITC95) with imipenem, growth by OD600. It is filed as cell-based. As to conditions: 95% inhibition of bacterial growth, strain CL5741. In outline: (§2)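 Colonies from overnight agar plates (35 °C) were suspended in saline and diluted 1:100 into 1.1× CAMHB. Inhibitor (final 200 μM to 0.195 μM) was combined with imipenem at 1 or 4 μg/ml, incubated 22–24 h at 35 °C, and absorbance read; MITC95 is the lowest inhibitor concentration giving 95% growth inhibition.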

The subject of assay [2] is Klebsiella pneumoniae expressing VIM-1 (IHMA599644). Described as above. Type of assay: cell-based. As to conditions: 95% inhibition of bacterial growth, strain IHMA599644. Summed up:
as §2

In assay [3] the test system is Escherichia coli expressing NDM-1 (CLB30005). Described as above. Type of assay: cell-based. As to conditions: 95% inhibition of bacterial growth, strain CLB30005. Summed up: as §2

Chain of NDM-1 (C7C422 29-270, looked up, species assumed): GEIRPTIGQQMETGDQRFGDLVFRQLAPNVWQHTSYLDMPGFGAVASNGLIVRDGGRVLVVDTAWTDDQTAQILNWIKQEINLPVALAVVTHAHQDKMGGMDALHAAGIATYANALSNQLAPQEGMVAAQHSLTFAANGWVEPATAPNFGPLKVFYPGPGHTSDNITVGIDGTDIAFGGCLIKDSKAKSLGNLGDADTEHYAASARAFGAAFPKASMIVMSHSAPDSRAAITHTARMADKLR
Chain of IMP-1 (P52699 19-246, looked up, species assumed): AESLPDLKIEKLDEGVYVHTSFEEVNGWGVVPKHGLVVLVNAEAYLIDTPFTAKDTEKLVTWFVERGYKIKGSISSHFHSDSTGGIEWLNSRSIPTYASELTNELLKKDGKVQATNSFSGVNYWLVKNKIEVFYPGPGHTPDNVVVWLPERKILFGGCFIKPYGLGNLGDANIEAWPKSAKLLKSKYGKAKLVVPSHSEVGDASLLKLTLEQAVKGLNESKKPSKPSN

In the case of `CC(C)=CCCC(C(=O)O)[C@H](Cc1ccccc1)c1nnn[nH]1` (stereo in doubt) [Example 15, (2R)-6-methyl-2-[(1S)-2-phenyl-1-(1H-tetrazol-5-yl)ethyl]hept-5-enoic acid], the IC50 is 0.38 µM on NDM-1, 4.8 µM at IMP-1 and 0.12 µM on VIM-1. Also, the “IMP1 SM5741 MITC95” value in assay [1] was >200 µM. Moreover, the “VIM1 KP599644 MITC95” value in assay [2] was 200 µM. Moreover, the “NDM1 EC30005 MITC95” value in assay [3] turned out to be 15.6 µM.

On to `CCCCC(C(=O)O)[C@@H](Cc1ccc(-c2ccc(S(C)(=O)=O)cc2)cc1)c1nn[nH]n1` (stereo in doubt) [Example 183, (2R)-2-[(1R)-2-[4′-(methylsulfonyl)biphenyl-4-yl]-1-(2H-tetrazol-5-yl)ethyl]hexanoic acid], for which the IC50 is 0.66 µM at NDM-1, 0.2 µM on IMP-1 and 0.7 µM at VIM-1. In addition, in assay [1], the “IMP1 SM5741 MITC95” value was >200 µM. In addition, the “VIM1 KP599644 MITC95” value in assay [2] is >200 µM. Also, the “NDM1 EC30005 MITC95” value in assay [3] was >200 µM.

On to `CC(C)CCC[C@H](C(=O)O)[C@H](Cc1ccccc1)c1nnn[nH]1` [Example 1, (S)-6-Methyl-2-((S)-2-phenyl-1-(1H-tetrazol-5-yl)ethyl)heptanoic acid], for which the values for the IC50 at NDM-1, at IMP-1 and on VIM-1 were 0.87 µM, 0.28 µM and > 20 µM, respectively. The “IMP1 SM5741 MITC95” value in assay [1] is 138 µM. Also, in assay [2], the “VIM1 KP599644 MITC95” value was >200 µM. Besides, the “NDM1 EC30005 MITC95” value in assay [3] came out at 75 µM.

For `CC(C)CCC[C@@H](C(=O)O)[C@H](Cc1ccccc1)c1nnn[nH]1` [Example 2, (R)-6-methyl-2-((S)-2-phenyl-1-(1H-tetrazol-5-yl)ethyl)heptanoic acid], the IC50 at NDM-1 was determined as 5.4 µM; at IMP-1, 0.068 µM; on VIM-1, 8.2 µM. The “IMP1 SM5741 MITC95” value in assay [1] was 100 µM. Besides, the “VIM1 KP599644 MITC95” value in assay [2] is >200 µM. Moreover, in assay [3], the “NDM1 EC30005 MITC95” value is >200 µM.

In the case of `O=C(O)[C@@H](Cc1ccccc1)[C@H](Cc1ccccc1)c1nnn[nH]1` [Example 3, (2S,3S)-2-benzyl-4-phenyl-3-(1H-tetrazol-5-yl)butanoic acid], the IC50 on NDM-1 amounted to 0.35 µM; at IMP-1 it was 0.55 µM; on VIM-1 it was 0.64 µM. In assay [1], the “IMP1 SM5741 MITC95” value worked out at 112.5 µM. Also, the “VIM1 KP599644 MITC95” value in assay [2] is >200 µM. Moreover, the “NDM1 EC30005 MITC95” value in assay [3] came out at 200 µM.

As to `CCC[C@H](C(=O)O)[C@H](Cc1ccccc1)c1nnn[nH]1` [Example 4, (S)-2-((S)-2-phenyl-1-(1H-tetrazol-5-yl)ethyl)pentanoic acid], the values for the IC50 on NDM-1, at IMP-1 and on VIM-1 were 0.049 µM, 0.38 µM and 0.014 µM, respectively. In assay [1], the “IMP1 SM5741 MITC95” value is >200 µM. In addition, the “VIM1 KP599644 MITC95” value in assay [2] turned out to be 50 µM. The “NDM1 EC30005 MITC95” value in assay [3] stood at 9.4 µM.

Take `CCC[C@@H](C(=O)O)[C@H](Cc1ccccc1)c1nnn[nH]1` [Example 5, (R)-2-((S)-2-phenyl-1-(1H-tetrazol-5-yl)ethyl)pentanoic acid]: the concentration for half-maximal inhibition (IC50) is 0.23 µM at NDM-1, 1.5 µM at IMP-1 and 0.061 µM at VIM-1. Further, the “IMP1 SM5741 MITC95” value in assay [1] is >200 µM. The “VIM1 KP599644 MITC95” value in assay [2] came to 200 µM. Besides, the “NDM1 EC30005 MITC95” value in assay [3] turned out to be 62.5 µM.

For `O=C(O)[C@@H](CCCC(F)(F)F)[C@H](Cc1ccccc1)c1nnn[nH]1` [Example 6, (S)-6,6,6-trifluoro-2-((S)-2-phenyl-1-(1H-tetrazol-5-yl)ethyl)hexanoic acid], the IC50 on NDM-1 turned out to be 0.24 µM; on IMP-1 it was 0.73 µM; at VIM-1 it was 0.13 µM. The “IMP1 SM5741 MITC95” value in assay [1] is 106.3 µM. The “VIM1 KP599644 MITC95” value in assay [2] was >200 µM. Also, in assay [3], the “NDM1 EC30005 MITC95” value was determined as 75 µM.
